Read-outs that look alike come from different tables or passages of the source.
Test system: LPS-stimulated pERK in monocytes (TPL2 pathway)
Test: Ex vivo LPS-stimulated pERK in monocytes of whole blood after Compound 1 dosing (flow cytometry)
Parameters: species or system human
Conditions: for inhibition at 300 mg / inhibition at 600 mg / inhibition at 900 mg / inhibition at 75 mg: Homo sapiens, Monocyte; for inhibition at 75 mg: 75 mg QD multiple dose
Method: For Cohorts 1-4, whole blood PD sampling occurred relative to the dose of Compound 1 at the following time points: • Day 1: 0 pre-dose (≤5 min prior to dosing), 1, 2, 3, 4, 8, 12, 24 and 36 hours post-dose
For Cohorts 5-9, whole blood PD sampling occurred relative to the dose of Compound 1 at the following time points: • Day 1: 0 pre-dose (≤5 min prior to dosing), 1, 2, 3, 4, 8, 12, and 24 hours post-dose • Day 10: 0 pre-dose (≤5 min prior to dosing), 1, 2, 3, 4, 8, 12, 24, 36, 48, 72, 96, and 120 hours post-dose
Whole blood PD Samples were stimulated ex vivo with lipopolysaccharide (LPS) or phosphate buffered saline (PBS), and the phosphorylation of extracellular signal-related kinase (pERK) was detected in monocytes by flow cytometry.
Pharmacodynamic changes after single and multiple doses of Compound 1 were also investigated by monitoring, in whole blood samples, stimulated with either lipopolysaccharide (LPS) or PBS for 15 minutes at 37° C. Changes to the phosphorylation of extracellular signal-regulated kinases (pERK) was measured in monocytes by flow cytometry, defined as CD15−CD14+.
Pharmacodynamic parameters for Compound 1 were calculated as percent change in pERK signal relative to Day 1 pre-dose (baseline) for all evaluable participants.
Multiple Ascending Doses: Pharmacodynamic parameters after multiple doses of Compound 1 were also calculated as percent change in pERK signal relative to Day 1 pre-dose (baseline) for all evaluable participants.

Cn1ccc2c([C@@H](c3cn(C45CC(C4)C5)nn3)N(C(=O)OCOP(=O)(O)O)c3cc(Cl)c4ncc(C#N)c(NCC(C)(C)C)c4c3)cccc2c1=O [Compound 1] was tested, and the inhibition at 300 mg (300 mg QD multiple dose, Day 1 1 hour, mean (SD), read-out: pERK Signal, % Inhibition) was 89.1%, the inhibition at 300 mg (300 mg QD multiple dose, Day 1 1 hour, median, read-out: pERK Signal, % Inhibition) was 93.8% and the inhibition at 300 mg (300 mg QD multiple dose, Day 1 3 hours, mean (SD), read-out: pERK Signal, % Inhibition) was 95.7%. For the same compound, the inhibition at 300 mg (300 mg QD multiple dose, Day 1 3 hours, median, read-out: pERK Signal, % Inhibition) was 97.1%, the inhibition at 300 mg (300 mg QD multiple dose, Day 1 12 hours, mean (SD), read-out: pERK Signal, % Inhibition) was 75.3% and the inhibition at 300 mg (300 mg QD multiple dose, Day 1 12 hours, median, read-out: pERK Signal, % Inhibition) was 74.3%. It also gave an inhibition at 300 mg (300 mg QD multiple dose, Day 10 1 hour, mean (SD), read-out: pERK Signal, % Inhibition) of 96.8%, an inhibition at 300 mg (300 mg QD multiple dose, Day 10 1 hour, median, read-out: pERK Signal, % Inhibition) of 97.1% and an inhibition at 300 mg (300 mg QD multiple dose, Day 10 3 hours, mean (SD), read-out: pERK Signal, % Inhibition) of 98.3%. The inhibition at 300 mg (300 mg QD multiple dose, Day 10 3 hours, median, read-out: pERK Signal, % Inhibition) was 98.7%, the inhibition at 300 mg (300 mg QD multiple dose, Day 10 12 hours, mean (SD), read-out: pERK Signal, % Inhibition) was 94% and the inhibition at 300 mg (300 mg QD multiple dose, Day 10 12 hours, median, read-out: pERK Signal, % Inhibition) was 95.7%. For the same compound, the inhibition at 300 mg (300 mg QD multiple dose, Day 10 24 hours, mean (SD), read-out: pERK Signal, % Inhibition) was 92.2%, the inhibition at 300 mg (300 mg QD multiple dose, Day 10 24 hours, median, read-out: pERK Signal, % Inhibition) was 91.6% and the inhibition at 600 mg (600 mg BID multiple dose, Day 1 1 hour, mean (SD), read-out: pERK Signal, % Inhibition) was 79.9%. It also gave an inhibition at 600 mg (600 mg BID multiple dose, Day 1 1 hour, median, read-out: pERK Signal, % Inhibition) of 74.3%, an inhibition at 600 mg (600 mg BID multiple dose, Day 1 3 hours, mean (SD), read-out: pERK Signal, % Inhibition) of 99.9% and an inhibition at 600 mg (600 mg BID multiple dose, Day 1 3 hours, median, read-out: pERK Signal, % Inhibition) of 99.9%. For the same compound, the inhibition at 600 mg (600 mg BID multiple dose, Day 1 12 hours, mean (SD), read-out: pERK Signal, % Inhibition) was 84.2%, the inhibition at 600 mg (600 mg BID multiple dose, Day 1 12 hours, median, read-out: pERK Signal, % Inhibition) was 91% and the inhibition at 600 mg (600 mg BID multiple dose, Day 10 1 hour, mean (SD), read-out: pERK Signal, % Inhibition) was 99.5%. For the same compound, the inhibition at 600 mg (600 mg BID multiple dose, Day 10 1 hour, median, read-out: pERK Signal, % Inhibition) was 100%, the inhibition at 600 mg (600 mg BID multiple dose, Day 10 3 hours, mean (SD), read-out: pERK Signal, % Inhibition) was 100% and the inhibition at 600 mg (600 mg BID multiple dose, Day 10 3 hours, median, read-out: pERK Signal, % Inhibition) was 100%. For the same compound, the inhibition at 600 mg (600 mg BID multiple dose, Day 10 12 hours, mean (SD), read-out: pERK Signal, % Inhibition) was 100%, the inhibition at 600 mg (600 mg BID multiple dose, Day 10 12 hours, median, read-out: pERK Signal, % Inhibition) was 100% and the inhibition at 600 mg (600 mg BID multiple dose, Day 10 24 hours, mean (SD), read-out: pERK Signal, % Inhibition) was 103%. For the same compound, the inhibition at 600 mg (600 mg BID multiple dose, Day 10 24 hours, median, read-out: pERK Signal, % Inhibition) was 102%, the inhibition at 900 mg (900 mg QD multiple dose, Day 1 1 hour, mean (SD), read-out: pERK Signal, % Inhibition) was 88.9% and the inhibition at 900 mg (900 mg QD multiple dose, Day 1 1 hour, median, read-out: pERK Signal, % Inhibition) was 95%. It also gave an inhibition at 900 mg (900 mg QD multiple dose, Day 1 3 hours, mean (SD), read-out: pERK Signal, % Inhibition) of 99.8%, an inhibition at 900 mg (900 mg QD multiple dose, Day 1 3 hours, median, read-out: pERK Signal, % Inhibition) of 99.6% and an inhibition at 900 mg (900 mg QD multiple dose, Day 1 12 hours, mean (SD), read-out: pERK Signal, % Inhibition) of 95.2%. It also gave an inhibition at 900 mg (900 mg QD multiple dose, Day 1 12 hours, median, read-out: pERK Signal, % Inhibition) of 95.3%, an inhibition at 900 mg (900 mg QD multiple dose, Day 10 1 hour, mean (N=1), read-out: pERK Signal, % Inhibition) of 99.4% and an inhibition at 900 mg (900 mg QD multiple dose, Day 10 1 hour, median (N=1), read-out: pERK Signal, % Inhibition) of 99.4%. It also gave an inhibition at 900 mg (900 mg QD multiple dose, Day 10 3 hours, mean (N=1), read-out: pERK Signal, % Inhibition) of 99.6%, an inhibition at 900 mg (900 mg QD multiple dose, Day 10 3 hours, median (N=1), read-out: pERK Signal, % Inhibition) of 99.6% and an inhibition at 900 mg (900 mg QD multiple dose, Day 10 12 hours, mean (N=1), read-out: pERK Signal, % Inhibition) of 96.7%. The inhibition at 900 mg (900 mg QD multiple dose, Day 10 12 hours, median (N=1), read-out: pERK Signal, % Inhibition) was 96.7%, the inhibition at 900 mg (900 mg QD multiple dose, Day 10 24 hours, mean (SD), read-out: pERK Signal, % Inhibition) was 98.3% and the inhibition at 900 mg (900 mg QD multiple dose, Day 10 24 hours, median, read-out: pERK Signal, % Inhibition) was 98.5%. It also gave an inhibition at 75 mg (24 h, Day 1 24 hours, mean (SD), read-out: pERK Signal, % Inhibition) of 1%, an inhibition at 75 mg (24 h, Day 1 24 hours, median, read-out: pERK Signal, % Inhibition) of 4.4% and an inhibition at 300 mg (24 h, 300 mg QD multiple dose, Day 1 24 hours, mean (SD), read-out: pERK Signal, % Inhibition) of 72.9%. For the same compound, the inhibition at 300 mg (24 h, 300 mg QD multiple dose, Day 1 24 hours, median, read-out: pERK Signal, % Inhibition) was 71.5%, the inhibition at 300 mg (24 h, 300 mg QD, steady state, 24 hours post-last dose, read-out: inhibition of LPS-stimulated pERK) was > 90% and the inhibition at 600 mg (24 h, 600 mg BID multiple dose, Day 1 24 hours, mean (SD), read-out: pERK Signal, % Inhibition) was 97.6%. The inhibition at 600 mg (24 h, 600 mg BID multiple dose, Day 1 24 hours, median, read-out: pERK Signal, % Inhibition) was 99.5%, the inhibition at 600 mg (24 h, 600 mg BID, steady state, 24 hours post-last dose, read-out: inhibition of LPS-stimulated pERK) was > 90% and the inhibition at 900 mg (24 h, 900 mg QD multiple dose, Day 1 24 hours, mean (SD), read-out: pERK Signal, % Inhibition) was 90.2%. The inhibition at 900 mg (24 h, 900 mg QD multiple dose, Day 1 24 hours, median, read-out: pERK Signal, % Inhibition) was 89.9%, the inhibition at 900 mg (24 h, 900 mg QD, steady state, 24 hours post-last dose, read-out: inhibition of LPS-stimulated pERK) was > 90% and the inhibition at 75 mg (240 h, Day 10 predose, mean (SD), read-out: pERK Signal, % Inhibition) was 24.4%. It also gave an inhibition at 75 mg (240 h, Day 10 predose, median, read-out: pERK Signal, % Inhibition) of 41.3%, an inhibition at 300 mg (240 h, 300 mg QD multiple dose, Day 10 predose, mean (SD), read-out: pERK Signal, % Inhibition) of 93.5% and an inhibition at 300 mg (240 h, 300 mg QD multiple dose, Day 10 predose, median, read-out: pERK Signal, % Inhibition) of 93.4%. The inhibition at 600 mg (240 h, 600 mg BID multiple dose, Day 10 predose, mean (SD), read-out: pERK Signal, % Inhibition) was 98.6%, the inhibition at 600 mg (240 h, 600 mg BID multiple dose, Day 10 predose, median, read-out: pERK Signal, % Inhibition) was 100% and the inhibition at 900 mg (240 h, 900 mg QD multiple dose, Day 10 predose, mean (N=1), read-out: pERK Signal, % Inhibition) was 97.1%. For the same compound, the inhibition at 900 mg (240 h, 900 mg QD multiple dose, Day 10 predose, median (N=1), read-out: pERK Signal, % Inhibition) was 97.1%, the “inhibition of LPS-stimulated pERK in ex vivo whole blood samples” value (SAD and MAD cohorts) was “dose-dependent and reversible inhibition” and the “time of peak inhibition of LPS-stimulated pERK” value (single oral doses, fasted, all dosages, post-dose) was 3 hours.
